Experimental data as given in ChEMBL document CHEMBL3879891, “Hydrazone compounds and their use” (2011).

How the values were obtained:
[1] = target: T1, Transient receptor potential cation channel subfamily M member 5 (Mus musculus) (UniProt Q9JJH7); experiment: Activation of TRPM5 in mouse GLUTag cells assessed as induction of 0.3 mM glucose-mediated GLP-1 secretion after 2 hrs by ELISA; type: cell-based
T1 sequence (whole entry): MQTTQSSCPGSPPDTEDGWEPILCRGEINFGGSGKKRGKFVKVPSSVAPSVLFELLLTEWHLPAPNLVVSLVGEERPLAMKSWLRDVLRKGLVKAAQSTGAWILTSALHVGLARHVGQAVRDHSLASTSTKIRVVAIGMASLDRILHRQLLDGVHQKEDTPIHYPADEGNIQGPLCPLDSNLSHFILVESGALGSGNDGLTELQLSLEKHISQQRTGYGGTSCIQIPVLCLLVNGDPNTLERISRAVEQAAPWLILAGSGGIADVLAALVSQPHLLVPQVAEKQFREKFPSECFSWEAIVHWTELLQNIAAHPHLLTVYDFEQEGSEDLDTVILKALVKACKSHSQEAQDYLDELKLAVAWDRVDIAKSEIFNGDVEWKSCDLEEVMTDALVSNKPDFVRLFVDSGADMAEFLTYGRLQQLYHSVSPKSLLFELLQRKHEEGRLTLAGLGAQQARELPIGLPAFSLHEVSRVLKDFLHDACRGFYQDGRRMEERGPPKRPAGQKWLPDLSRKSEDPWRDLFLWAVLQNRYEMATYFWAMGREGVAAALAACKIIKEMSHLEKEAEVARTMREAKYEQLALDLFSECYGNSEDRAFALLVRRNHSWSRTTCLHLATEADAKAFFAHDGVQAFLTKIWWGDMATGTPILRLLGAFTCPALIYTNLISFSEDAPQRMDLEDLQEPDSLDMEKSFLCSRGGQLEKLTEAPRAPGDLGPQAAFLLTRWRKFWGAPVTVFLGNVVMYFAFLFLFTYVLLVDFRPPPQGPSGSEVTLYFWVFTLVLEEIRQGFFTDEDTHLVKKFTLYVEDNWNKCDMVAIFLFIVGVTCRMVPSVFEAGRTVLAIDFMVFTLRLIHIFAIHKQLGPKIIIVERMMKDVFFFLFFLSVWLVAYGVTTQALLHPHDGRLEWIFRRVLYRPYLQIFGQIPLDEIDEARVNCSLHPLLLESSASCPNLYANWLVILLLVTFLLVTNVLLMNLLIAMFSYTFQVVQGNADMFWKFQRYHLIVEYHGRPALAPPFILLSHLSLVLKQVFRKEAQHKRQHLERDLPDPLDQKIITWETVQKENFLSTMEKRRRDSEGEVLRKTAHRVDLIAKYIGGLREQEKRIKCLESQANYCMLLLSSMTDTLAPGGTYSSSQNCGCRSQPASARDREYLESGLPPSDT

[2] = target: Transient receptor potential cation channel, subfamily M, member 5 (Rattus norvegicus) (UniProt A0A8I6AG64); experiment: Activation of TRPM5 in Sprague-Dawley rat primary islets assessed as induction of 12 mM glucose-mediated insulin secretion after 3 hrs by ELISA
[3] = target: T1, Transient receptor potential cation channel subfamily M member 5 (Mus musculus); experiment: Activation of TRPM5 in SV40 expressing transgenic mouse Beta-TC-6 cells assessed as induction of 1 mM glucose-mediated insulin secretion after 2 hrs by ELISA

Chain of Transient receptor potential cation channel, subfamily M, member 5 (Rattus norvegicus) (A0A8I6AG64 as listed by the source): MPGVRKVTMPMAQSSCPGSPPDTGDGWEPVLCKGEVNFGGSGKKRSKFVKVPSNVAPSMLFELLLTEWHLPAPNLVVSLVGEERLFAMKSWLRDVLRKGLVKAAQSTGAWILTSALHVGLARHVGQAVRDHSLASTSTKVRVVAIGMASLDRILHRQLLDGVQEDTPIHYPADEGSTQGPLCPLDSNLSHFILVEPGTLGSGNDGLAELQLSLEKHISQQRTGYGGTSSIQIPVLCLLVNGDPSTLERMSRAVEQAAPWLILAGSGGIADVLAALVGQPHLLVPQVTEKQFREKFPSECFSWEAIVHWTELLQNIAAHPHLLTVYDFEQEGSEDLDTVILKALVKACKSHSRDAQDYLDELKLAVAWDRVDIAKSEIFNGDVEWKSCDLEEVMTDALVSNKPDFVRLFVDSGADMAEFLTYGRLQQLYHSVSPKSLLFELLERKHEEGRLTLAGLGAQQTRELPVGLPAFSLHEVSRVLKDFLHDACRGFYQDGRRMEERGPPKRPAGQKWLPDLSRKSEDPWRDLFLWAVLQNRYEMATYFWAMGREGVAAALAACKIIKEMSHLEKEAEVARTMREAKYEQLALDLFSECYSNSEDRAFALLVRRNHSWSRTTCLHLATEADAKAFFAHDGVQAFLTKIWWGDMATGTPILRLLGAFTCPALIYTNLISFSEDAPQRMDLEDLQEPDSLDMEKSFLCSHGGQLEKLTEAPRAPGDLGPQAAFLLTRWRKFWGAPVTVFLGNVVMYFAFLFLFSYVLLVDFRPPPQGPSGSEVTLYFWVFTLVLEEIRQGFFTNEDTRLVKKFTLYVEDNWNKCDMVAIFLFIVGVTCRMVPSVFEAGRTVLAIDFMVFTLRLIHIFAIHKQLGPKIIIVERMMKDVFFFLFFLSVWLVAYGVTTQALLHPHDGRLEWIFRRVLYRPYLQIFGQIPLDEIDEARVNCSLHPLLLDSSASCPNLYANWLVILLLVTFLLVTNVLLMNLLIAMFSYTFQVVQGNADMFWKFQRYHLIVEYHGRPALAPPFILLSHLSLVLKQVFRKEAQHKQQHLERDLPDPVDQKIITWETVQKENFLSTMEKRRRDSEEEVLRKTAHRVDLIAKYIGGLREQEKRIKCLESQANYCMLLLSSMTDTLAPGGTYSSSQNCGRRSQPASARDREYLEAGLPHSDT

Activity [1]: Dose-dependent effect | Activity [2]: Dose-dependent effect | Activity [3]: Dose-dependent effect
SMILES: Cc1cc(/C=N/NC(=O)[C@@H]2C[C@H]2c2ccccc2)cc2cccnc12 (relative stereo)
